One may read the Emax as the maximal effect, on the per cent scale that the assay sets. One may read the EC50 as the concentration at which the effect is half-maximal. A lower EC50 goes with a more potent agent. One may read the bioavailability as dose-corrected exposure relative to a reference, in per cent.

The target in data set [1] is T1, S1PR1 (Homo sapiens, UniProt P21453).
T1 construct: expressed in transfected cells
Briefly: In vitro S1PR1 agonistic activity (PathHunter cell line, chemiluminescence). In kind it is cell-based. As to conditions: for Emax: % activity relative to maximum control ligand; for EC50: agonist mode, 90-180 minutes at 37° C. The method, then:
Test Embodiment 1: In Vitro Evaluation of the Agonistic Activity of the Compounds of the Present Disclosure on S1PR1
Experimental Objective: To Detect the Agonistic Activity of Compounds on S1PR1
• 1. A PathHunter cell line was thawed according to standard procedures; • 2. the cells were inoculated in a 20 μL 384-well microplate and incubated at 37° C. for appropriate time. II. Agonist • 1. For agonist determination, cells were incubated with samples to be tested to induce a reaction; • 2. a storage solution to be tested was 5-fold diluted into a buffer; • 3. 5 μL of the 5-fold dilution was added to the cells and incubated at 37° C. for 90-180 minutes. The vehicle concentration was 1%. III. Signal Detection • 1. 12.5 μL or 15 μL of PathHunter detection reagent at a volume ratio of 50% was added at a time, and then incubated at room temperature for 1 hour to generate a detection signal; • 2. the microplate was read with a PerkinElmer Envision™ instrument for chemiluminescent signal detection. IV. Data Analysis • 1. Activity analysis of the compound was carried out by using CBIS data analysis kit (ChemInnovation, CA); • 2. Calculation formula: % activity=100%×(average test sample RLU−average vehicle RLU)/(average maximum control ligand−average vehicle RLU)

Data set [2] is described as follows: Pharmacokinetic evaluation in SD rats (intravenous injection and oral administration). In kind it is in vivo. As to conditions: Sprague-Dawley, plasma, SD rat, male. The method, then:
Test Embodiment 2: Pharmacokinetic Evaluation of Compound in Rats
Experimental Objective: To Test the Pharmacokinetics of the Compound in SD Rats
Sprague Dawley rat (male, 200-300 g, 7-9 weeks old, Shanghai SLAC)
(§1) A standard protocol was used to test the pharmacokinetic characteristics of rodents after intravenous injection and oral administration of the compound. In the experiment, the candidate compound was prepared into a clear solution, and administrated to rats by single intravenous injection and oral administration. The vehicle for intravenous injection was a 5:95 DMSO and 10% hydroxypropyl β-cyclodextrin aqueous solution, and the vehicle for oral administration was a 0.5% w/v methylcellulose and 0.2% w/v tween 80 aqueous solution. Whole blood samples within 24 hours were collected, centrifuged at 3000 g for 15 minutes, and the supernatant was separated to obtain plasma samples. Four times the volume of acetonitrile solution containing internal standard was added thereto to precipitate protein. The mixture was centrifuged, and the supernatant was taken, and an equal volume of water was added thereto. Then the mixture was centrifuged and the supernatant was taken for injection. The blood drug concentration was quantitatively analyzed by LC-MS/MS analysis method, and pharmacokinetic parameters, such as peak concentration, clearance rate, tissue distribution, half-life, area under the drug-time curve and bioavailability, were calculated.

The nature of data set [3]: Pharmacokinetic evaluation in CD-1 mice (intravenous injection and oral administration). It is filed as in vivo. As to conditions: mouse, male, plasma. The method, then: Test Embodiment 3: Pharmacokinetic Evaluation of Compound in Mice
Experimental Objective: To Test the Pharmacokinetics of the Compound in CD-1 Mice
CD-1 mice (male, 20-40 g, 6-10 weeks old, Shanghai BK)
as §1, with “The” for “A”, “two mice” for “rats”, “3200” for “3000”, “10” for “15”, “concentration, tissue distribution,” for “concentration,”, “rate,” for “rate, tissue distribution,”

T1 sequence (P21453 whole entry): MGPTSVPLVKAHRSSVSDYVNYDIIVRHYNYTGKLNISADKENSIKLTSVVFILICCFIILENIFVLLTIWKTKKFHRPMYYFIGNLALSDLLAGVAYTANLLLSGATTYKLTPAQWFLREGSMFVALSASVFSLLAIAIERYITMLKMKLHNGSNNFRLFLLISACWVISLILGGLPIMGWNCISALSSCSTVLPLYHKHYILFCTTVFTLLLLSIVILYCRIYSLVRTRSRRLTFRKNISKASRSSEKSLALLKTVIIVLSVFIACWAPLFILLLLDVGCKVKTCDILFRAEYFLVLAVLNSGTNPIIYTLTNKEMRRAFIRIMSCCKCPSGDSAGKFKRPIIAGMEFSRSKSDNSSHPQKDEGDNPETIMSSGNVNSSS

In data set [1], `CC(C)Oc1ncc(-c2nc(-c3cccc4c3CCC43CC(=O)N(CC(=O)O)C3)no2)cc1C#N` (centres unmarked) [Compound 8] came in with an Emax of 110% and an EC50 of 1.25 nM.

On to `CC(C)Oc1ncc(-c2ncc(-c3cccc4c3CCC43CC(=O)N(CCO)C3)cn2)cc1C#N` (centres unmarked) [Compound 6], for which, in data set [1], the Emax is 78.5% and the EC50 came to 7.1 nM.

In data set [1], `CC(C)Oc1ncc(-c2nsc(-c3cccc4c3CCC43CC(=O)N(CCO)C3)n2)cc1C#N` (centres unmarked) [Compound 4] yielded an Emax of 67.6% and an EC50 of 20.9 nM.

In data set [1], `CC(C)Oc1ncc(-c2ncc(-c3cccc4c3CCC43CC(=O)N(CCO)C3)o2)cc1C#N` (centres unmarked) [Compound 5] had an Emax of 63.5% and an EC50 of 24.3 nM.

Regarding `CC(C)Oc1ncc(-c2nc(-c3cccc4c3CCC43CC(=O)N(CCC(=O)O)C3)no2)cc1C#N` (centres unmarked) [Compound 9], in data set [1], the Emax is 104% and the EC50 stood at 0.613 nM.

In data set [1], `CC(C)Oc1ncc(-c2nc(-c3cccc4c3CCC43CC(=O)N(CCO)C3)no2)cc1Br` (centres unmarked) [Compound 3] gave an Emax of 62.8% and an EC50 of 4.46 nM.

Consider `CC(C)Oc1ncc(-c2nc(-c3cccc4c3CCC43CCN(C4CC(C(=O)O)C4)C3)no2)cc1C#N` (centres unmarked) [Compound 10], for which, in data set [1], the Emax worked out at 92% and the response was half-maximal at 0.474 nM (EC50).

Regarding `CC(C)Oc1ncc(-c2nc(-c3cccc4c3CCC43CC(=O)N(CCO)C3)no2)cc1C#N` (centres unmarked) [Compound 1], the AUC(0-t) came to 35.5 µM·h in data set [2] (PO 3.0 mg/kg, read-out: Area under the drug-time curve AUC0-last PO) and 21.3 µM·h in data set [3] (PO 2.0 mg/kg, read-out: Area under the drug-time curve AUC0-last PO). For the same compound, the half-life was 7.22 h in data set [2] (PO 3.0 mg/kg, read-out: Half-life T1/2 (PO) (converted)) and 3.5 h in data set [3] (PO 2.0 mg/kg, read-out: Half-life T1/2 (PO) (converted)). In addition, the clearance in data set [2] (intravenous 1.0 mg/kg / oral 3.0 mg/kg, read-out: Clearance rate CL) is 1.66 mL/min/kg; in data set [3] (intravenous 0.5 mg/kg / oral 2.0 mg/kg, read-out: Clearance rate CL), 3.42 mL/min/kg. Further, the Vd in data set [2] (intravenous 1.0 mg/kg / oral 3.0 mg/kg, read-out: Tissue distribution Vdss) stood at 1.18 L/kg; in data set [3] (intravenous 0.5 mg/kg / oral 2.0 mg/kg, read-out: Tissue distribution Vdss) it was 0.902 L/kg. Moreover, the bioavailability is 71.9% in data set [2] (intravenous 1.0 mg/kg, oral 3.0 mg/kg, read-out: Bioavailability F) and 100% in data set [3] (intravenous 0.5 mg/kg, oral 2.0 mg/kg, read-out: Bioavailability F). Moreover, the Cmax in data set [2] (intravenous 1.0 mg/kg / oral 3.0 mg/kg, read-out: Peak concentration Cmax) is 3100 ng/mL; in data set [3] (intravenous 0.5 mg/kg / oral 2.0 mg/kg, read-out: Peak concentration Cmax), 2830 ng/mL. This compound also came in with an Emax in data set [1] of 99.3%. In data set [1], this compound showed an EC50 of 0.134 nM.

As to `CC(C)Oc1ncc(-c2nnc(-c3cccc4c3CCC43CC(=O)N(CCO)C3)s2)cc1C#N` (centres unmarked) [Compound 11], in data set [1], the Emax is 104% and the EC50 was determined as 6.12 nM.

In data set [1], `CC(C)Oc1ncc(-c2ncc(-c3cccc4c3CCC43CC(=O)N(CCO)C3)s2)cc1C#N` (centres unmarked) [Compound 7] came in with an Emax of 88.1% and an EC50 of 2.84 nM.

The values above are taken from US12637448B2, “Tricyclic compounds and use thereof” (HELIOEAST PHARMACEUTICAL CO., LTD, priority 2020, dated 2026).
